Data set [1] deals with Pten-mutant and control B cells. The experiment in a line: Mitochondrial potential by JC-1 staining. As to conditions: anti-IgM treatment, within 12 hours. The format is cell-based, mouse. The procedure:
B cells were cultured to a density of 0.5−1.0×10^6 cells/ml. For each condition, 1 ml of cells was treated with the appropriate agent for the appropriate length of time as shown in FIG. 8C. Mitochondrial potential was assessed by using the fluorescent potentiometric dye JC-1 (5,5′,6,6′,-tetrachloro-1,1′,3,3′-tetraethylbenzimidazolylcarbocyanine iodide, Molecular Probe). JC-1 is a novel cationic carbocyanine dye that accumulates in mitochondria. The dye exists as a monomer at low concentrations and yields green fluorescence, similar to fluorescein. […] These characteristics make JC-1 a sensitive marker for mitochondrial membrane potential. Briefly, 0.3 ml of the cells were mixed with 0.3 ml of staining solution (complete medium containing 0.5 μg/1 ml JC-1). Cells were stained for 30 min in a 37° C. incubator (5% CO2). After staining, cells were collected at room temperature and washed once in 1×PBS. The cell pellet was then resuspended in PBS (pre-warmed to 37° C.), and JC-1 fluorescence was analyzed on a Becton-Dickinson FACS using Cell-Quest software.

For another data set, the system named is Pten-mutant B cells. The data set is described as follows: Proliferation and survival assays (CFSE, propidium iodide staining) with anti-IgM. The format is cell-based, mouse. As to conditions: for division of Pten-mutant cells: 3 days of stimulation with BCR signal, CFSE. An excerpt:
Pten(+/−) mice and Pten^flox/+ mice (background strain C57/BL6) were provided by Dr. Pandolfi PP (Di Cristofano et al., 1999 Science 285:2122). To generate B cell-specific Pten-deficient mice, Pten^flox/+ mice were crossed with CD19^cre/+ transgenic mice (purchased from Jackson lab). Offspring carrying CD19^cre/+ and the floxed Pten mutation on both alleles (Pten^flox/flox CD19^Cre/+), and the wild-type Pten gene (Pten^+/+ CD19^Cre/+) were used for analysis as homozygous mutant, wild-type mice, respectively. The mice were maintained under specific pathogen-free conditions in the animal colony of Weill Medical college of Cornell University. Pten^flox/flox CD19^Cre/+ mice were crossed with c-Rel-deficient mice (Tumang et al., 1998 Eur J Immunol 28:4299) to generate the double deficient mice.
For propidium iodide staining assay, B-cells were cultured in 10 μg/ml anti-IgM or 10 μg/ml anti-CD40 or 10 μg/ml LPS. At the indicated time points, cells were collected and stained with a solution containing 50 μg/ml propidium iodide, 20 ng/ml RNase A, 0.1% Triton X-100, and 0.1% sodium citrate. Duplicate samples were then analyzed on a Becton-Dickinson FACS using Cell-Quest software, and the percentage of apoptotic cells (<2N DNA content) or S and G2/M phase cells (>2N DNA content) quantified. For ^3H-thymidine incorporation assays, B-cells were plated at 1×10^5 cells per well in 96-well U-bottomed plates and cultured in complete media containing RPMI 1640, 10% heat inactivated FCS (DeWned; Hyclone, Logan, Utah), 2 mM L-glutamine, 1 mM non-essential amino acids, 100 μg/ml, penicillin/streptomycin, and 5×10^−5 M/L^−1 mercaptoethanol at 37° C. and 5% CO2. Where indicated, cells were stimulated with 10 μg/ml goat anti-mouse IgM F(ab′)2 (anti-IgM, Jackson ImmunoResearch Laboratories), or 10 μg/ml anti-CD40 (mAb 1C 10), or 10 μg/ml LPS. Six hours prior to the indicated time points, cultures were incubated with 0.5 μCi/well thymidine (Amersham), and then harvested onto Whatman Filters to determine proliferative responses by thymidine incorporation. […]

In data set [2] the test system is immature B cells. The experiment in a line: Anti-IgM induced apoptosis. The format is cell-based, mouse. As to conditions: 50 mM inhibitor. The procedure:
Mature and immature B cells (>95% B220+) were isolated from untreated mice or sublethally irradiated mice by complement-mediated lysis and Percoll gradient as described previously, and cultured in RPMI 1640 media containing 10% fetal calf serum (FCS) (Cellgro), 1% penicillin, 1% streptomycin (both Life Sciences BRL), and 50 uM b-mercaptoethanol (Sigma). For caspase experiments, 2×10^6/ml B cells were plated per well in 24-well polystyrene flat-bottom plates (Corning) in 1000 ul of total culture volume. […]
The following antibodies were used for FACS analysis: anti-CD24 (HSA), anti-CD21, anti-IgD, anti-IgM, and anti-B220 (RA3-6B2), labeled with R-phycoerythrin (PE), FITC or Allophyocyanin (APC), all purchased from Pharmigen. […] Duplicate samples were then analyzed by FACS (Becton-Dickinson) using CellQuest software, and the percentage of apoptotic cells (<2N DNA content) or S and G2/M phase cells (>2N DNA content) quantified. For PIP3 assays, PIP3 levels were measured using a biotin-labeled antibody against anti-PI-3,4,5-P3 (a gift from Dr. Paul Neilsen, Echelon, Salt Lake City, Utah) and FACS following a published protocol.

The test system of data set [3] is immature B cells. The experiment in a line: BCR-induced mitochondrial depolarization, JC-1 staining. As to conditions: 50 mM inhibitor, anti-IgM. The format is cell-based, mouse. On the procedure: Mature and immature B cells (>95% B220+) were isolated from untreated mice or sublethally irradiated mice by complement-mediated lysis and Percoll gradient as described previously, and cultured in RPMI 1640 media containing 10% fetal calf serum (FCS) (Cellgro), 1% penicillin, 1% streptomycin (both Life Sciences BRL), and 50 uM b-mercaptoethanol (Sigma). For caspase experiments, 2×10^6/ml B cells were plated per well in 24-well polystyrene flat-bottom plates (Corning) in 1000 ul of total culture volume. The following combinations of agents were added for 12 hr or 24 hr at 37° C.: 10 mg/ml of goat anti-mouse IgM F(ab)2 (anti-IgM, Jackson ImmunoResearch Laboratories), 50 mM of z-VAD-fmk, a pan-caspase inhibitor, or 50 mM of z-LEHD-fmk, a specific […], or 50 mM of z-FA-fmk, a cathepsin B inhibitor (Enzyme System Products). For the PI3K assay, 5×10^6 B cells were plated per well in 24-well polystyrene flat-bottom plates (Corning) in 2 ml final culture volume, with 10 mg/ml of goat anti-mouse IgM F(ab′)2 added for the indicated time at 37° C. […]
Cells were cultured at a density of 0.5−1.0×10^6 cells/ml. […] The dye exists as a monomer at low concentrations and yields green fluorescence, similar to fluorescein. […] The cell pellet was then resuspended in PBS, and JC-1 fluorescence analyzed by FACS.

In data set [4] the target is T1, c-Rel (homodimer) (Homo sapiens, UniProt Q04864 Q04864:2-619).
T1 sequence: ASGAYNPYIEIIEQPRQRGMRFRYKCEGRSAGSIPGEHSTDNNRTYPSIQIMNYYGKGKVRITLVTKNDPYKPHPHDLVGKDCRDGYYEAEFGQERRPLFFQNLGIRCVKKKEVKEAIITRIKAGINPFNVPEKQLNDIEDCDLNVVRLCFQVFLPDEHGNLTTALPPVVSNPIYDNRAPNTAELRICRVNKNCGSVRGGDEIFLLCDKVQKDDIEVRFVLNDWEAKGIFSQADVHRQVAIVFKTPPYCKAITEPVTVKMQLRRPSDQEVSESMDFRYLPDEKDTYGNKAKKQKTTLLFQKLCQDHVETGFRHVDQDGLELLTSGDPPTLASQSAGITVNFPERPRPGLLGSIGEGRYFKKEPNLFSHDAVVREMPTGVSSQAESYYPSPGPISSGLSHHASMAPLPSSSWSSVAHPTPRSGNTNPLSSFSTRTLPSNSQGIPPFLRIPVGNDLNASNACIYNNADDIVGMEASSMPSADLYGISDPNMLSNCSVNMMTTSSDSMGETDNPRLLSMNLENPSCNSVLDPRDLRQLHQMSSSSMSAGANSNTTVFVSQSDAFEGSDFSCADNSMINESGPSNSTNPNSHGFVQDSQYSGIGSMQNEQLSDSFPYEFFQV
The experiment in a line: competition; unlabeled CD28RE returns FP to basal level at 128 nM. As to conditions: tags: C-terminal His, E. coli BL-21 Lys (DE3); full-length or subdomain (not specified); chain copies: 2 stated. The procedure:
(§1) According to the EMSA data, the concentrations of FITC-labeled DNA probe and c-Rel protein used in FP screen assay were optimized. Initially, the fluorescently labeled probe was added in different concentrations (5 nM, 10 nM, 100 nM) while c-Rel protein concentration (2000 nM) was constant, and the reactions were incubated for 15-30 minutes at room temperature, and then transferred to the wells of 384-well plate (20 μl/well). The FP values were measured using FUSION Universal Microplate Analyzer (Perkin Elmer, PE). […] In most cases, there is an increase in FP, with FP signals saturated in the presence of 128 nM of c-Rel. The dissociation constant (Kd) calculated using this method is larger than that observed using EMSA.
To exclude the possibility that non-specific interaction of c-Rel protein with DNA molecules contributes to the increase in FP value, a cold competition experiment was performed. […] However, a control DNA molecule, the unlabeled Oct1 (20 mers) in the same conditions as applied to the cold CD28RE probe, had no effect on FP value. Thus, this assay specifically and quantitatively measured interactions in the interface between c-Rel protein and CD28 RE.

For data set [5], the target named is T1, c-Rel (homodimer). The experiment in a line: FP; 10 nM probe; FP saturated at 128 nM c-Rel; Kd said to be larger than by EMSA but no number in text; abolished by GST-IkBa. As to conditions: tags: C-terminal His, E. coli BL-21 Lys (DE3); full-length or subdomain (not specified); chain copies: 2 stated; label: 5'-FITC. On the procedure: as §1
It was next investigated whether this assay could detect a known endogenous inhibitor (IkBα) of c-Rel activity. […] Recombinant GST-IkBα previously generated (final concentration is 150 nM) was added to a binding reaction consisting of 10 nM FITC-CD28RE and 100 nM c-Rel. […] Thus, this assay detected specific inhibitors that function by directly binding c-Rel protein and inducing a conformation change. Moreover, consistent with the scatter data distribution shown in FIG. 3d, z factor, one assay performance indicator, was also evaluated. […]

Peptide text beside a SMILES is read from it. * marks the point of attachment. Cbz = O=C(OCc1ccccc1)*; CH2F = FC*

`Cc1ccc(S(=O)(=O)/C=C/C#N)cc1` [Bay 11]: in data set [1], the mitochondrial depolarization entry is reported as “mitochondrial depolarization”. Besides, in the data set on Pten-mutant B cells, the “division of Pten-mutant cells” value is “completely blocked”. In addition, the cell apoptosis entry in the data set with Pten-mutant B cells (propidium iodine staining) was “significant cell apoptosis”.

Turning to `CC(C)C[C@H](NC(=O)[C@H](Cc1ccccc1)NC(=O)c1cnccn1)B(O)O` [Velcade], the mitochondrial depolarization entry in data set [1] is listed as “mitochondrial depolarization”. In addition, the “division of Pten-mutant cells” value with Pten-mutant B cells was “completely blocked”.

On to `CC(NC(=O)[C@H](Cc1ccccc1)NC(=O)OCc1ccccc1)C(=O)CF` (stereo partly shown) [z-FA-fink], for which, in the data set with immature B cells [2], the anti-IgM induced apoptosis entry is on record as “failed to inhibit”.

Regarding `COC(=O)CC[C@H](NC(=O)[C@H](CC(C)C)NC(=O)OCc1ccccc1)C(=O)N[C@@H](Cc1cnc[nH]1)C(=O)N[C@@H](CC(=O)OC)C(=O)CF` [z-LEHD-fmk] (Cbz-LE(OMe)HD(OMe)-CH2F), the “BCR-induced changes in DY (mitochondrial membrane potential)” value with immature B cells [3] is reported as “Neither inhibitor reversed”.

As to `COC(=O)C[C@H](NC(=O)[C@H](C)NC(=O)[C@@H](NC(=O)OCc1ccccc1)C(C)C)C(=O)CF` [z-VAD-fmk] (Cbz-Val-Ala-Asp(OMe)-CH2F), the “BCR-induced changes in DY (mitochondrial membrane potential)” value with immature B cells [3] is “Neither inhibitor reversed”.

B1: CD28RE EMSA probe/unlabeled competitor (dsDNA)
DNA 1: TCTGGAATTTCTTTAAACCC
DNA 2: GGGTTTAAAGAAATTCCAGA
For the molecule B1, the binding result in the data set with c-Rel (homodimer) [4] is “binds”.

B2: CD28RE kB site 20-mer FITC probe (dsDNA)
DNA 1: TCTGGAATTTCTTTAAACCC
DNA 2: GGGTTTAAAGAAATTCCAGA
Turning to B2, the binding result in the data set with c-Rel (homodimer) [5] is on record as “binds”.

For the origin of these results see patent publication US20100055116A1, “Methods and Compositions for Targeting c-Rel” (priority 2006, published 2010).
